From patent US20140349989A1, “COMPOUNDS AND THERAPEUTIC USES THEREOF” (Alzheimer's Institute of America, priority 2011, published 2014)

Assay: Cytotoxicity Assay (HCT116, CellTiter-Glo)
Type: cell-based
Conditions: human, HCT116 cell cytotoxicity IC50
Protocol: HCT116 cells were seeded in 96 well plates (Greiner Bio-One, Monroe, N.C.) and allowed to settle overnight. Test compound dissolved in dimethyl sulfoxide (DMSO) was added and drug incubation proceeded for 72 hours. When applicable, a 1000× solution of nicotinic acid (NA; Sigma-Aldrich, St. Louis, Mo.) dissolved in water was generated, and 1×NA (10 μM final concentration) was added at the same time as the test compound. After 72 hour, 50 μL of CellTiter-Glo Luminescent Cell Viability Assay reagent (Promega Corporation, Madison, Wis.) was added to cells in 200 μL of cellular media. After a proscribed incubation period, luminescence was measured using a TopCount NXT plate reader (PerkinElmer, Waltham, Mass.).

Which IC50 at 72 h does the source give for `O=C(NCc1cccnc1)Nc1ccc(-n2cc(-c3nccn3CCCN3CCCC3)c3ccccc32)cc1` [Compound 120, 1-(Pyridin-3-ylmethyl)-3-[4-(3-{1-[3-(pyrrolidin-1-yl)propyl]-1H-imidazol-2-yl}-1H-indol-1-yl)phenyl] urea] here?
Its IC50 at 72 h is ≥ 100 nM.

For `CC(C)(C)OC(=O)N1CC(N2CC(CCCCCCNC(=O)NCc3cccnc3)c3ccccc32)C1` (stereo not drawn) [Compound 121, tert-Butyl 3-[3-(6-{[(pyridin-3-yl-methyl)carbamoyl]amino}hexyl)-2,3-dihydro-1H-indol-1-yl]azetidine-1-carboxylate], which IC50 at 72 h is on record?
The IC50 at 72 h was < 100 nM.

With `CC(C)(C)OC(=O)N1CCC(n2cc(CCCCCCNC(=O)NCc3cccnc3)c3ccccc32)CC1` [Compound 123, tert-Butyl 4-[3-(6-{[(pyridin-3-ylmethyl)carbamoyl]amino}hexyl)-1H-indol-1-yl]piperidine-1-carboxylate] as the compound, how does the IC50 at 72 h read?
Its IC50 at 72 h is ≥ 100 nM.

Which IC50 at 72 h does the source give for `CCOCCOCCN1CCC2(CC1)CN(c1ccc(NC(=O)NCc3cccnc3)cc1)c1ccccc12` [Compound 126, 1-(4-{1′-[2-(2-Ethoxy-ethoxy)ethyl]spiro[indole-3,4′-piperidin]-1(2H)-yl}phenyl)-3-(pyridin-3-ylmethyl)urea] here?
The IC50 at 72 h was ≥ 100 nM.

Which IC50 at 72 h does the source give for `O=C(NCc1cccnc1)Nc1ccc(-n2c(Cl)c(C(=O)N3CCC(n4ccnc4)CC3)c3ccccc32)cc1` [Compound 127, 1-[4-(2-Chloro-3-{[4-(1H-imidazol-1-yl)piperidin-1-yl]carbonyl}-1H-indol-1-yl)phenyl]-3-(pyridin-3-ylmethyl)urea] here?
The IC50 at 72 h was < 100 nM.

With `O=C(NCc1ccc(Cl)nc1)Nc1ccc(-n2cc(CCN3CCOCC3)c3ccccc32)cc1` [Compound 128, 1-[(6-Chloro-pyridin-3-yl)methyl]-3-(4-{3-[2-(morpholin-4-yl)ethyl]-1H-indol-1-yl}phenyl)urea] as the compound, how does the IC50 at 72 h read?
Its IC50 at 72 h is < 100 nM.

With `O=C(NCc1cccnc1)Nc1ccc(-n2cc(C3CCN(CCO)CC3)c3ccccc32)cc1` [Compound 129, 1-(4-{3-[1-(2-Hydroxy-ethyl)piperidin-4-yl]-1H-indol-1-yl}phenyl)-3-(pyridin-3-ylmethyl)urea] as the compound, how does the IC50 at 72 h read?
The IC50 at 72 h was ≥ 100 nM.

Which IC50 at 72 h does the source give for `O=C(NCc1cccnc1)Nc1ccc(N2CC3(CCN(C4CCOCC4)CC3)c3ccccc32)nc1` [Compound 130] here?
The IC50 at 72 h was < 100 nM.

Same assay, conditions: human, HCT116 cells, 72 hours drug incubation, CellTiter-Glo luminescence; read-out: HCT116 cell cytotoxicity IC50

Which IC50 at 72 h does the source give for `Cc1c(C(=O)N2CCN(C3CCCCC3)CC2)c2ccccc2n1-c1ccc(NC(=O)NCc2cccnc2)cc1` [Compound 104, 1-(4-{3-[(4-Cyclohexyl-piperazin-1-yl)carbonyl]-2-methyl-1H-indol-1-yl}phenyl)-3-(pyridin-3-ylmethyl)urea] here?
The IC50 at 72 h was < 100 nM.

For `O=C(NCc1cccnc1)Nc1ccc(-n2cc(C3CCN(C4COC4)CC3)c3ccccc32)cc1` [Compound 105, 1-(4-{3-[1-(Oxetan-3-yl)piperidin-4-yl]-1H-indol-1-yl}phenyl)-3-(pyridin-3-ylmethyl)urea], which IC50 at 72 h is on record?
Its IC50 at 72 h is < 100 nM.

With `CCOC(=O)c1cn(CCCNC(=O)NCc2cccnc2)c2ccccc12` [Compound 106, Ethyl 1-(3-{[(pyridin-3-ylmethyl)carbamoyl]ami-no}propyl)-1H-indole-3-carboxylate] as the compound, how does the IC50 at 72 h read?
Its IC50 at 72 h is ≥ 100 nM.

Which IC50 at 72 h does the source give for `O=C(NCc1cccnc1)Nc1ccc(-n2cc(C(=O)N3CCC(N4CCC(F)(F)CC4)CC3)c3ccccc32)c(Cl)c1` [Compound 107, 1-(3-Chloro-4-{3-[(4,4-difluoro-1,4′-bipiperidin-1′-yl)carbonyl]-1H-indol-1-yl}phenyl)-3-(pyridin-3-ylmethyl)urea] here?
The IC50 at 72 h was < 100 nM.

For `Cc1c(C(=O)N2CCC(O)CC2)c2ccccc2n1-c1ccc(NC(=O)NCc2cccnc2)cc1` [Compound 108, 1-(4-{3-[(4-Hydroxypiperidin-1-yl)carbonyl]-2-methyl-1H-indol-1-yl}phenyl)-3-(pyridin-3-yl-methyl)urea], which IC50 at 72 h is on record?
The IC50 at 72 h was < 100 nM.

For `O=C(NCc1cccnc1)Nc1ccc(-n2cc(C3CCN(C4CCCC4)CC3)c3ccccc32)cc1` [Compound 110, 1-{4-[3-(1-Cyclopentyl-piperidin-4-yl)-1H-indol-1-yl]phenyl}-3-(pyridin-3-ylmethyl)urea], which IC50 at 72 h is on record?
The IC50 at 72 h was < 100 nM.

With `CN1CCC(c2cn(-c3ccc(NC(=O)NCc4cccnc4)cc3)c3ccccc23)CC1` [Compound 111, 1-{4-[3-(1-Methylpiperidin-4-yl)-1H-indol-1-yl]phenyl}-3-(pyridin-3-ylmethyl)urea] as the compound, how does the IC50 at 72 h read?
The IC50 at 72 h was < 100 nM.

For `CN(C)CC(=O)N1CCC2(CC1)CN(c1ccc(NC(=O)NCc3cccnc3)cc1)c1ccccc12` [Compound 112, 1-{4-[1′-(N,N-Dimethylglycyl)spiro[indole-3,4′-piperidin]-1(2H)-yl]phenyl}-3-(pyridin-3-ylmethyl)urea], which IC50 at 72 h is on record?
The IC50 at 72 h was < 100 nM.

Which IC50 at 72 h does the source give for `CCN1CCN(C(=O)c2cn(CCCCCNC(=O)NCc3cncs3)c3ccccc23)CC1` [Compound 113, 1-(5-{3-[(4-Ethylpiperazin-1-yl)carbonyl]-1H-indol-1-yl}pentyl)-3-(1,3-thiazol-5-ylmethyl) urea] here?
Its IC50 at 72 h is < 100 nM.

Which IC50 at 72 h does the source give for `O=C(NCc1cccnc1)Nc1ccc(-n2nc(N3CCN(C4COC4)CC3)c3ccccc32)cc1` [Compound 114, 1-(4-{3-[4-(Oxetan-3-yl)piperazin-1-yl]-1H-indazol-1-yl}phenyl)-3-(pyridin-3-ylmethyl)urea] here?
The IC50 at 72 h was < 100 nM.

For `CN1CCN(C2CCN(C(=O)c3cn(CCCCNC(=O)NCc4cccnc4)c4ccccc34)CC2)CC1` [Compound 115, 1-[4-(3-{[4-(4-Methylpiperazin-1-yl)piperidin-1-yl]carbonyl}-1H-indol-1-yl)butyl]-3-(pyridin-3-ylmethyl)urea], which IC50 at 72 h is on record?
The IC50 at 72 h was < 100 nM.

Which IC50 at 72 h does the source give for `O=C(NCCCCCn1cc(C(=O)N2CCN(C3CCCCC3)CC2)c2ccccc21)NCc1cccnc1` [Compound 116, 1-(5-{3-[(4-Cyclohexyl-piperazin-1-yl)carbonyl]-1H-indol-1-yl}pentyl)-3-(pyridin-3-ylmethyl)urea] here?
The IC50 at 72 h was < 100 nM.

With `O=C(NCc1cccnc1)Nc1ccc(N2CC3(CCN(C4CCCC4)CC3)c3ccccc32)cc1` [Compound 117, 1-[4-(1′-Cyclo-pentylspiro[indole-3,4′-piperidin]-1(2H)-yl)phenyl]-3-(pyridin-3-ylmethyl)urea] as the compound, how does the IC50 at 72 h read?
The IC50 at 72 h was < 100 nM.

Which IC50 at 72 h does the source give for `O=C(NCCCCCn1cc(C(=O)N2CCN(C3CCCCC3)CC2)c2ccccc21)NCc1cncs1` [Compound 124, 1-(5-{3-[(4-Cyclohexyl-piperazin-1-yl)carbonyl]-1H-indol-1-yl}pentyl)-3-(1,3-thiazol-5-ylmethyl) urea] here?
The IC50 at 72 h was < 100 nM.

Which IC50 at 72 h does the source give for `CN1CCN(C2CCN(C(=O)c3cn(CCCNC(=O)NCc4cccnc4)c4ccccc34)CC2)CC1` [Compound 125, 1-[3-(3-{[4-(4-Methylpiperazin-1-yl)piperidin-1-yl]carbonyl}-1H-indol-1-yl)propyl]-3-(pyridin-3-ylmethyl)urea] here?
The IC50 at 72 h was < 100 nM.

Which IC50 at 72 h does the source give for `CC1CCCN1CCc1cn(-c2ccc(/C=C/C(=O)NCc3cccnc3)cc2)c2ccccc12` (stereo not drawn) [Compound 161, (2E)-3-(4-{3-[2-(2-Methylpyrrolidin-1-yl)ethyl]-1H-indol-1-yl)phenyl)-N-(pyridin-3-ylmethyl)prop-2-enamide] here?
The IC50 at 72 h was < 100 nM.

With `CCN(CC)CCc1cn(-c2ccc(/C=C/C(=O)NCc3cccnc3)cc2)c2ccccc12` [Compound 162, (2E)-3-(4-{3-[2-(Diethylamio)ethyl]-1H-indol-1-yl}phenyl)-N-(pyridin-3-ylmethyl)prop-2-enamide] as the compound, how does the IC50 at 72 h read?
The IC50 at 72 h was < 100 nM.

For `CC(C)N(CCc1cn(-c2ccc(/C=C/C(=O)NCc3cccnc3)cc2)c2ccccc12)C(C)C` [Compound 163], which IC50 at 72 h is on record?
The IC50 at 72 h was < 100 nM.

For `CN(C)C1CN(C(=O)c2nn(-c3ccc(/C=C/C(=O)NCc4cccnc4)cc3)c3ccccc23)C1` [Compound 165, (2E)-3-[4-(3-{[3-(Dimethylamino)azetidin-1-yl]carbonyl}-1H-indazol-1-yl)phenyl]-N-(pyridin-3-ylmethyl)prop-2-enamide], which IC50 at 72 h is on record?
The IC50 at 72 h was < 100 nM.

With `CN(C)C1CCN(C(=O)c2nn(-c3ccc(/C=C/C(=O)NCc4cccnc4)cc3)c3ccccc23)C1` (stereo not drawn) [Compound 166, (2E)-3-[4-(3-{[3-(Dimethylamino)pyrrolidin-1-yl]carbonyl}-1H-indazol-1-yl)phenyl]-N-(pyridin-3-ylmethyl)prop-2-enamide] as the compound, how does the IC50 at 72 h read?
The IC50 at 72 h was < 100 nM.

With `O=C(/C=C/c1ccc(-n2nc(C(=O)N3CCN(C4CCC4)CC3)c3ccccc32)cc1)NCc1cccnc1` [Compound 167, (2E)-3-(4-{3-[(4-Cyclobutylpiperazin-1-yl)carbonyl]-1H-indazol-1-yl}phenyl)-N-(pyridin-3-ylmethyl)prop-2-enamide] as the compound, how does the IC50 at 72 h read?
Its IC50 at 72 h is < 100 nM.

With `O=C(/C=C/c1ccc(-n2nc(C(=O)N3CCC(N4CCCC4)CC3)c3ccccc32)cc1)NCc1cccnc1` [Compound 168, (2E)-N-(Pyridin-3-ylmethyl)-3-[4-(3-{[4-(pyrrolidin-1-yl)piperidin-1-yl]carbonyl}-1H-indazol-1-yl)phenyl]prop-2-enamide] as the compound, how does the IC50 at 72 h read?
The IC50 at 72 h was < 100 nM.

Which IC50 at 72 h does the source give for `O=C(/C=C/c1ccc(-n2nc(C(=O)N3CCC(N4CCOCC4)C3)c3ccccc32)cc1)NCc1cccnc1` (stereo not drawn) [Compound 170, (2E)-3-[4-(3-{[3-(Morpholin-4-yl)pyrrolidin-1-yl]carbonyl}-1H-indazol-1-yl)phenyl]-N-(pyridin-3-ylmethyl)prop-2-enamide] here?
The IC50 at 72 h was < 100 nM.

Which IC50 at 72 h does the source give for `O=C(/C=C/c1ccc(-n2nc(C(=O)N3CCC(N4CCOCC4)CC3)c3ccccc32)cc1)NCc1cccnc1` [Compound 171, (2E)-3-[4-(3-{[4-(Morpholin-4-yl)piperidin-1-yl]carbonyl}-1H-indazol-1-yl)phenyl]-N-(pyridin-3-ylmethyl)prop-2-enamide] here?
The IC50 at 72 h was < 100 nM.

Which IC50 at 72 h does the source give for `O=C(/C=C/c1ccc(-n2nc(C(=O)N3CCN(C4CCCCC4)CC3)c3ccccc32)cc1)NCc1cccnc1` [Compound 173, (2E)-3-(4-{3-[(4-Cyclohexylpiperazin-1-yl)carbonyl]-1H-indazol-1-yl}phenyl)-N-(pyridin-3-ylmethyl)prop-2-enamide] here?
The IC50 at 72 h was < 100 nM.
